Reference: patent US8673894B2 (Hoffmann-La Roche Inc., priority 2010, dated 2014)
Where a name gives a salt, the structure may show the parent alone.

Columns and labels:
[1] = test system: Aβ40; test: Cellular Aβ-lowering assay; assay type: cell-based; details: HEK293 cells stably expressing human APP695, Aβ40 in supernatant by ELISA after 18-20 hrs; read-out: Cellular assay Abeta40 IC50
Procedure: Cellular Aβ-Lowering Assay:
Human HEK293 cells which are stably transfected with a vector expressing a cDNA of the human APP wt gene (APP695) were used to assess the potency of the compounds in a cellular assay. The cells were seeded in 96-well microtiter plates in cell culture medium (Iscove, plus 10% (v/v) fetal bovine serum, glutamine, penicillin/streptomycin) to about 80% confluence and the compounds were added at a 10× concentration in 1/10 volume of medium without FCS containing 8% DMSO (final concentration of DMSO was kept at 0.8% v/v). After 18-20 hrs incubation at 37° C. and 5% CO2 in a humidified incubator the culture supernatant was harvested for the determination of Aβ40 concentrations. 96well ELISA plates (e.g., Nunc MaxiSorb) were coated with monoclonal antibody which specifically recognize the C-terminal end of Aβ40 (Brockhaus et al., NeuroReport 9, 1481-1486; 1998). After blocking of non-specific binding sites with e.g. 1% BSA and washing, the culture supernatants were added in suitable dilutions together with a horseradish peroxidase-coupled Aβ detection antibody (e.g., antibody 4G8, Senetek, Maryland Heights, Mo.) and incubated for 5 to 7 hrs. Subsequently the wells of the microtiter plate were washed extensively with Tris-buffered saline containing 0.05% Tween 20 and the assay was developed with tetramethylbenzidine/H2O2 in citric acid buffer. After stopping the reaction with one volume 1 N H2SO4 the reaction was measured in an ELISA reader at 450 nm wavelength. The concentrations of Aβ in the culture supernatants were calculated from a standard curve obtained with known amounts of pure Aβ peptide.

[2] = biological target: T1, endogenous cellular BACE2 (Rattus norvegicus, UniProt Q6IE75); test: Assay for BACE inhibition by measuring cellular TMEM27 cleavage; assay type: cell-based; details: INS-TMEM27 (INS1e-derived) cells, shed human TMEM27 in supernatant by ELISA
T1 construct: endogenous cellular BACE2 in the Ins1e rat cell line; endogenous in cells; host or cells: INS-TMEM27 (INS1e-derived rat insulinoma cell line with doxycycline-inducible full-length human TMEM27)
T1 sequence (Q6IE75 63-514): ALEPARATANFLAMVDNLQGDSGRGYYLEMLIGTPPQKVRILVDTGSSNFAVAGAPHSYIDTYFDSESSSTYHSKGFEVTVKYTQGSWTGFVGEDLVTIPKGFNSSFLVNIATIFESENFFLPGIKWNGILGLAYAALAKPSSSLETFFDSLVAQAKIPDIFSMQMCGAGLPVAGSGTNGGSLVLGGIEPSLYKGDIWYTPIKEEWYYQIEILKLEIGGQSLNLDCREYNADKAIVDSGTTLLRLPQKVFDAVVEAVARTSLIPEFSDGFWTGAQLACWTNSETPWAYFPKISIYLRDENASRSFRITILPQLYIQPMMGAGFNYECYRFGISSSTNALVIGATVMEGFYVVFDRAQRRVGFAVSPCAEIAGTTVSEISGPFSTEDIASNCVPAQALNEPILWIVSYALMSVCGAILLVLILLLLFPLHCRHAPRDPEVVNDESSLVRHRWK
Source text: Assay for BACE Inhibition by Measuring Cellular TMEM27 Cleavage:
The assay uses the principle of inhibition of human TMEM27 cleavage by endogenous cellular BACE2 in the Ins1e rat cell line and shedding from the cell surface into the culture medium, followed by detection in an ELISA assay. Inhibition of BACE2 prevents the cleavage and shedding in a dose-dependent manner.
The stable cell line “INS-TMEM27” represents an INS1e-derived cell line with inducible expression (using the TetOn system) of full-length hTMEM27 in a doxycycline-dependent manner. The cells are cultured throughout the experiment in RPMI1640+ Glutamax (Invitrogen) Penicillin/Streptomycin, 10% Fetal bovine serum, […], […], 100 micrograms/ml G418 and 100 microgram/ml hygromycin and are grown inadherent culture at 37° C. in a standard CO2 cell culture incubator.
INS-TMEM27 cells are seeded in 96-well plates. After 2 days in culture, BACE2 inhibitor is added in a range of concentrations as required by the assay and after a further two hours, doxycycline is added to a final concentration of 500 ng/ml. The cells are incubated for a further 46 hours and the supernatant harvested for detection of shed TMEM27.
An ELISA assay (using a pair of mouse anti-human-TMEM27 antibodies, raised against the extracellular domain of TMEM27) is used for detection of TMEM27 in the culture medium. An EC50 for BACE2 inhibition is calculated using the ELISA readout for each inhibitor concentration with standard curve-fitting software such as XLFit for the Excel spreadsheet program.

SMILES | IC50 [1] [nM] | IC50 [2] [nM]
CC1(C)C[C@@](C)(c2cc(NC(=O)C3(C(F)(F)F)CC3)ccc2F)N=C(N)CO1 [Example 20, 1-Trifluoromethyl-cyclopropanecarboxylic acid [3-((S)-3-amino-5,7,7-trimethyl-2,5,6,7-tetrahydro-[1,4]oxazepin-5-yl)-4-fluoro-phenyl]-amide] | 220 | 38
CC1(C)C[C@@](C)(c2cc(NC(=O)c3ncc(C(F)(F)F)cc3Cl)ccc2F)N=C(N)CO1 [Example 21, 3-Chloro-5-trifluoromethyl-pyridine-2-carboxylic acid [3-((S)-3-amino-5,7,7-trimethyl-2,5,6,7-tetrahydro-[1,4]oxazepin-5-yl)-4-fluoro-phenyl]-amide] | 3.2 | 8.7
CC1(C)C[C@@](C)(c2cc(NC(=O)CC(F)(F)F)ccc2F)N=C(N)CO1 [Example 22, N-[3-((S)-3-Amino-5,7,7-trimethyl-2,5,6,7-tetrahydro-[1,4]oxazepin-5-yl)-4-fluoro-phenyl]-3,3,3-trifluoro-propionamide] | 980 | 55
C[C@@]1(c2cc(NC(=O)C3CC3(F)F)ccc2F)CCOCC(N)=N1 (stereo partly drawn) [Example 23, 2,2-Difluoro-cyclopropanecarboxylic acid [3-((S)-3-amino-5-methyl-2,5,6,7-tetrahydro-[1,4]oxazepin-5-yl)-4-fluoro-phenyl]-amide] | 1640 | 140
C[C@@]1(c2cc(NC(=O)C3(C(F)(F)F)CCC3)ccc2F)CCOCC(N)=N1 [Example 24, 1-Trifluoromethyl-cyclobutanecarboxylic acid [3-((S)-3-amino-5-methyl-2,5,6,7-tetrahydro-[1,4]oxazepin-5-yl)-4-fluoro-phenyl]-amide] | 5870 | 28
C[C@]1(c2cc(NC(=O)c3ncc(C(F)(F)F)cc3Cl)ccc2F)N=C(N)COCC1(F)F [Example 25, 3-Chloro-5-trifluoromethyl-pyridine-2-carboxylic acid [3-((R)-3-amino-6,6-difluoro-5-methyl-2,5,6,7-tetrahydro-[1,4]oxazepin-5-yl)-4-fluoro-phenyl]-amide] | 7 | 51
C[C@]1(c2cc(NC(=O)c3ncccc3F)ccc2F)N=C(N)COCC1(F)F [Example 27, (R)-N-(3-(3-amino-6,6-difluoro-5-methyl-2,5,6,7-tetrahydro-1,4-oxazepin-5-yl)-4-fluorophenyl)-3-fluoropicolinamide, salt with formic acid] | 44 | 58
CC1(C)OCCC(C)(c2cc(NC(=O)c3ccc(F)cn3)ccc2F)N=C1N (stereo not shown) [Example 28, 5-Fluoro-pyridine-2-carboxylic acid [3-(3-amino-2,2,5-trimethyl-2,5,6,7-tetrahydro-[1,4]oxazepin-5-yl)-4-fluoro-phenyl]-amide] | 340 | 130
C[C@]1(c2cc(NC(=O)c3ccc(F)cn3)ccc2F)N=C(N)COCC1(F)F [Example 29, (R)-N-(3-(3-amino-6,6-difluoro-5-methyl-2,5,6,7-tetrahydro-1,4-oxazepin-5-yl)-4-fluorophenyl)-5-fluoropicolinamide formate] | 5.3 | 3.3
C[C@]1(c2cc(NC(=O)c3ccc(C#N)cn3)ccc2F)N=C(N)COCC1(F)F [Example 30, (R)-N-(3-(3-amino-6,6-difluoro-5-methyl-2,5,6,7-tetrahydro-1,4-oxazepin-5-yl)-4-fluorophenyl)-5-cyanopicolinamide formate] | 2.1 | 43
Cc1cc(Cl)cnc1C(=O)Nc1ccc(F)c([C@@]2(C)N=C(N)COCC2(F)F)c1 [Example 31, (R)-N-(3-(3-amino-6,6-difluoro-5-methyl-2,5,6,7-tetrahydro-1,4-oxazepin-5-yl)-4-fluorophenyl)-5-chloro-3-methylpicolinamide formate] | 1 | 2.6
C[C@]1(c2cc(NC(=O)c3ncc(F)cc3F)ccc2F)N=C(N)COCC1(F)F [Example 32, (R)-N-(3-(3-amino-6,6-difluoro-5-methyl-2,5,6,7-tetrahydro-1,4-oxazepin-5-yl)-4-fluorophenyl)-3,5-difluoropicolinamide formate] | 4.5 | 4.4
C[C@]1(c2cc(NC(=O)C3(C(F)(F)F)CC3)ccc2F)N=C(N)COCC1(F)F [Example 33, (R)-N-(3-(3-amino-6,6-difluoro-5-methyl-2,5,6,7-tetrahydro-1,4-oxazepin-5-yl)-4-fluorophenyl)-1-(trifluoromethyl)cyclopropanecarboxamide formate] | 90 | 240
C[C@]1(c2cc(NC(=O)C3CC3(F)F)ccc2F)N=C(N)COCC1(F)F (stereo partly drawn) [Example 34, N-(3-((R)-3-amino-6,6-difluoro-5-methyl-2,5,6,7-tetrahydro-1,4-oxazepin-5-yl)-4-fluorophenyl)-2,2-difluorocyclopropanecarboxamide formate] | 76 | 380
C[C@]1(c2cc(NC(=O)c3ccccn3)ccc2F)N=C(N)COCC1(F)F [Example 35, (R)-N-(3-(3-amino-6,6-difluoro-5-methyl-2,5,6,7-tetrahydro-1,4-oxazepin-5-yl)-4-fluorophenyl)picolinamide formate] | 14 | 29
C[C@]1(c2cc(NC(=O)c3ncccc3Cl)ccc2F)N=C(N)COCC1(F)F [Example 36, (R)-N-(3-(3-amino-6,6-difluoro-5-methyl-2,5,6,7-tetrahydro-1,4-oxazepin-5-yl)-4-fluorophenyl)-3-chloropicolinamide formate] | 38 | 8.4
C[C@]1(c2cc(NC(=O)c3ncccc3C(F)(F)F)ccc2F)N=C(N)COCC1(F)F [Example 37, (R)-N-(3-(3-amino-6,6-difluoro-5-methyl-2,5,6,7-tetrahydro-1,4-oxazepin-5-yl)-4-fluorophenyl)-3-(trifluoromethyl)picolinamide formate] | 54 | 25
C[C@]1(c2cc(NC(=O)c3cnc(Cl)cn3)ccc2F)N=C(N)COCC1(F)F [Example 38, (R)-N-(3-(3-amino-6,6-difluoro-5-methyl-2,5,6,7-tetrahydro-1,4-oxazepin-5-yl)-4-fluorophenyl)-5-chloropyrazine-2-carboxamide formate] | 55 | 170
C[C@]1(c2cc(NC(=O)c3ncc(Cl)cc3Cl)ccc2F)N=C(N)COCC1(F)F [Example 39, (R)-N-(3-(3-amino-6,6-difluoro-5-methyl-2,5,6,7-tetrahydro-1,4-oxazepin-5-yl)-4-fluorophenyl)-3,5-dichloropicolinamide formate] | 2.6 | 3
C[C@]1(c2cc(NC(=O)c3ncc(F)cc3Cl)ccc2F)N=C(N)COCC1(F)F [Example 40, (R)-N-(3-(3-amino-6,6-difluoro-5-methyl-2,5,6,7-tetrahydro-1,4-oxazepin-5-yl)-4-fluorophenyl)-3-chloro-5-fluoropicolinamide formate] | 5.9 | 6.2
